Assay results reported in patent publication US20250026724A1, “(1,4,5-TRISUBSTITUTED 1H-PYRAZOL-3-YL)OXY-2-ALKYLTHIOALKYL ACIDS AND -ALKYL ACID DERIVATIVES, SALTS THEREOF AND USE THEREOF AS ACTIVE HERBICIDAL INGREDIENTS” (BAYER AKTIENGESELLSCHAFT, priority 2021, published 2025).
Where two headings read alike, the source gives them in different places.

Legend:
Format in all cases: in vivo
[1] = tested on: Amaranthus retroflexus (AMARE); test: Pre-emergence herbicidal effect, greenhouse pot trial; conditions: visual rating after about 3 weeks vs untreated controls
Excerpt: (§1) Seeds of monocotyledonous and dicotyledonous weed plants and crop plants are placed in plastic or organic planting pots and covered with soil. The compounds of the invention, formulated in the form of wettable powders (WP) or as emulsion concentrates (EC), are then applied to the surface of the covering soil as aqueous suspension or emulsion with addition of 0.5% additive at a water application rate equivalent to 600 1/ha. After the treatment, the pots are placed in a greenhouse and kept under good growth conditions for the trial plants. After about 3 weeks, the effect of the preparations is rated visually in comparison with untreated controls as percentages. For example, 100% activity=the plants have died, 0% activity=like control plants.
(§2) Tables A1 and A2 below show the effects of selected compounds of the general formula (I) according to Table 1 on various harmful plants and at an application rate corresponding to 320 g/ha or lower, which were obtained by the trial procedure specified above. The appendices “a” and “b” give differentiation by dosage used with otherwise the same harmful plants tested.
(§3) As shown by the results from Tables A1 and A2, compounds of the invention have good pre-emergence herbicidal efficacy against harmful plants, for example against harmful plants such as Amaranthus retroflexus (AMARE) and Polygonum convolvulus (POLCO).

[2] = tested on: Polygonum convolvulus (POLCO); test: as above; conditions: visual rating after about 3 weeks vs untreated controls
Excerpt: as §1, §2, §3

[3] = tested on: Abutilon theophrasti (ABUTH); test: Post-emergence herbicidal action, greenhouse pot trial; conditions: 320 g/ha, visual rating after about 3 weeks
Summary of the method: (§4)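 Visual % activity versus untreated controls (100% = plants died, 0% = like control), scored about 3 weeks post-spray. Plants grown in sandy loam pots under greenhouse conditions were treated at the one-leaf stage with WP or EC formulations at 320 g/ha or lower.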

[4] = tested on: Alopecurus myosuroides (ALOMY); test: as above; conditions: 320 g/ha, visual rating after about 3 weeks
Summary of the method: as §4

[5] = tested on: Echinochloa crus-galli (ECHCG); test: as above; conditions: for pest or weed control at 320 g/ha: read-out: Post-emergence effect at 320 g/ha against ECHCG in %
Summary of the method: as §4

[6] = tested on: Lolium rigidum (LOLRI); test: as above; conditions: Lolium rigidum, 504 h, 320 g/ha, visual rating after about 3 weeks, read-out: Post-emergence effect at 320 g/ha against LOLRI in %
Summary of the method: as §4

[7] = tested on: Matricaria inodora (MATIN); test: as above; conditions: visual rating after about 3 weeks
Summary of the method: as §4

[8] = tested on: Pharbitis purpurea (PHBPU); test: as above; conditions: Ipomoea purpurea, 504 h, 320 g/ha, visual rating after about 3 weeks, read-out: Post-emergence effect at 320 g/ha against PHBPU in %
Summary of the method: as §4

[9] = tested on: Polygonum convolvulus (POLCO); test: as above; conditions: visual rating after about 3 weeks
Summary of the method: as §4

[10] = tested on: Setaria viridis (SETVI); test: as above; conditions: for pest or weed control at 320 g/ha: Setaria viridis, 504 h, read-out: Post-emergence effect at 320 g/ha against SETVI in %
Summary of the method: as §4

[11] = tested on: Viola tricolor (VIOTR); test: as above
Summary of the method: as §4

[12] = tested on: Glycine max (GLXMA); test: Post-emergence crop plant compatibility, greenhouse pot trial; conditions: in comparison to untreated controls
Summary of the method: (§5)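 Sandy loam pots, greenhouse; one-leaf stage (2–3 wk post-sowing) sprayed with aqueous WP/EC, 0.5% additive, 600 l/ha water rate. Visual % rating ~3 wk after treatment vs untreated; 0% = like control, 100% = plants died. Suffixes a/b/c mark different dosages.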

[13] = tested on: Oryza sativa (ORYSA); test: as above; conditions: in comparison to untreated controls
Summary of the method: as §5

[14] = tested on: Triticum aestivum (TRZAS); test: as above; conditions: post-emergence; for Post-emergence effect against TRZAS (crop plant compatibility): in comparison to untreated controls; for Post-emergence effect at 320 g/ha against TRZAS in %: crop plant compatibility (effect on crop vs untreated controls)
Summary of the method: as §5

[15] = tested on: Zea mays (ZEAMX); test: as above; conditions: in comparison to untreated controls
Summary of the method: as §5

[16] = tested on: Brassica napus (BRSNW); test: as above; conditions: 20 g/ha, in comparison to untreated controls
Summary of the method: as §5

[17] = tested on: Amaranthus retroflexus (AMARE); test: Post-emergence herbicidal action, greenhouse pot trial; conditions: visual rating after about 3 weeks
Summary of the method: as §4

[18] = tested on: Digitaria sanguinalis (DIGSA); test: as above; conditions: 320 g/ha, visual rating after about 3 weeks
Summary of the method: as §4

[19] = 320 g/ha, visual rating after about 3 weeks

| SMILES | Post-emergence effect against GLXMA (crop plant compatibility) ([12]; 20 g/ha) | Post-emergence effect against GLXMA (crop plant compatibility) ([12]; 80 g/ha) | Post-emergence effect against ORYSA (crop plant compatibility) ([13]; 20 g/ha) | Post-emergence effect against ORYSA (crop plant compatibility) ([13]; 80 g/ha) | Post-emergence effect against ORYSA (crop plant compatibility) ([13]; 320 g/ha) | Post-emergence effect against TRZAS (crop plant compatibility) ([14]; 20 g/ha) | Post-emergence effect against TRZAS (crop plant compatibility) ([14]; 80 g/ha) | Post-emergence effect against ZEAMX (crop plant compatibility) ([15]; 20 g/ha) | Post-emergence effect against BRSNW (crop plant compatibility) [16] | Post-emergence effect at 320 g/ha against TRZAS in % [14] | Post-emergence effect against ZEAMX (crop plant compatibility) ([15]; 80 g/ha) | Post-emergence effect against ZEAMX (crop plant compatibility) ([15]; 320 g/ha) | other results |
| --- | --- | --- | --- | --- | --- | --- | --- | --- | --- | --- | --- | --- | --- |
| CCOC(=O)C(Oc1nn(-c2ccccc2F)c(-c2ccc(F)nc2)c1Br)SC (stereo not drawn) [Example I-01] | – | – | – | – | – | – | – | – | – | – | – | – | Pre-emergence effect at 80 g/ha against AMARE in % ([1]; 80 g/ha): 90%; Pre-emergence effect at 320 g/ha against AMARE in % ([1]; 320 g/ha): 100%; Pre-emergence effect at 80 g/ha against POLCO in % ([2]; 80 g/ha): 80%; Pre-emergence effect at 320 g/ha against POLCO in % ([2]; 320 g/ha): 80%; pest or weed control at 320 g/ha ([3]; Abutilon theophrasti, 504 h, read-out: Post-emergence effect at 320 g/ha against ABUTH in %): 80%; pest or weed control at 320 g/ha ([4]; Alopecurus myosuroides, 504 h, read-out: Post-emergence effect at 320 g/ha against ALOMY in %): 80%; pest or weed control at 80 g/ha ([5]; Echinochloa crus-galli, 504 h, 80 g/ha, visual rating after about 3 weeks, read-out: Post-emergence effect at 80 g/ha against ECHCG in %): 80%; pest or weed control at 320 g/ha ([5]; Echinochloa crus-galli, 504 h, 320 g/ha, visual rating after about 3 weeks): 80%; pest or weed control at 320 g/ha [6]: 80%; pest or weed control at 80 g/ha ([7]; Tripleurospermum inodorum, 504 h, 80 g/ha, read-out: Post-emergence effect at 80 g/ha against MATIN in %): 80%; pest or weed control at 320 g/ha ([7]; Tripleurospermum inodorum, 504 h, 320 g/ha, read-out: Post-emergence effect at 320 g/ha against MATIN in %): 80%; pest or weed control at 320 g/ha [8]: 90%; pest or weed control at 80 g/ha ([9]; Fallopia convolvulus, 504 h, 80 g/ha, read-out: Post-emergence effect at 80 g/ha against POLCO in %): 80%; pest or weed control at 320 g/ha ([9]; Fallopia convolvulus, 504 h, 320 g/ha, read-out: Post-emergence effect at 320 g/ha against POLCO in %): 80%; pest or weed control at 320 g/ha [10, 19]: 80%; pest or weed control at 320 g/ha ([11]; Viola tricolor, 504 h, 320 g/ha, read-out: Post-emergence effect against VIOTR): 80% |
| CCOC(=O)C(Oc1nn(-c2cc(F)ccc2F)c(-c2cncc(F)c2)c1C1CC1)SC (stereo not drawn) [Example I-05] | 0% | 10% | 0% | 0% | 10% | 0% | 10% | 20% | – | – | – | – | pest or weed control at 320 g/ha ([5]; Echinochloa crus-galli, 504 h): 80%; pest or weed control at 320 g/ha [10]: 90% |
| CCOC(=O)C(Oc1nn(-c2ccc(Cl)cc2F)c(-c2ccc(F)cc2F)c1Br)SC (stereo not drawn) [Example I-12] | 0% | 0% | 0% | 0% | 0% | 0% | 0% | 0% | 0% | 0% | 0% | 0% | Post-emergence effect against GLXMA (crop plant compatibility) ([12]; 320 g/ha): 0% |
| CCOC(=O)C(Oc1nn(-c2ncccc2F)c(-c2ccc(Cl)cc2)c1Br)SC (stereo not drawn) [Example I-15] | 0% | 10% | 0% | 0% | 0% | 0% | 0% | 0% | 0% | 10% | 0% | 10% | – |
| COC(=O)CCOC(=O)C(Oc1nn(-c2ccccc2F)c(-c2ccc(F)nc2)c1I)SC (stereo not drawn) [Example I-54] | 0% | 0% | – | – | – | 0% | – | 0% | – | – | – | – | Post-emergence effect at 320 g/ha against ABUTH in % [3]: 80%; Post-emergence effect at 320 g/ha against ALOMY in % [4]: 80%; Post-emergence effect at 80 g/ha against AMARE in % ([17]; 80 g/ha): 90%; Post-emergence effect at 320 g/ha against AMARE in % ([17]; 320 g/ha): 90%; Post-emergence effect at 320 g/ha against DIGSA in % [18]: 80%; Post-emergence effect at 320 g/ha against ECHCG in % [5, 19]: 90%; Post-emergence effect at 320 g/ha against MATIN in % ([7]; 320 g/ha): 80%; Post-emergence effect at 320 g/ha against POLCO in % ([9]; 320 g/ha): 80%; Post-emergence effect at 320 g/ha against SETVI in % [10, 19]: 90%; Post-emergence effect against VIOTR ([11]; 80 g/ha): 80%; Post-emergence effect against VIOTR ([11]; 320 g/ha): 90% |
